The results in this text go back to US7629318B2, “Immunosuppressant compounds, methods and uses related thereto” (priority 2002, dated 2009).

Where “and” joins values, the source holds several entries; their conditions need not be identical. Identical values can stand only once. Numbered stars: 1 amine (or outer) side, 2 acyl side, 3 side chain; on linkers, the order of the positions; unused ones are H or OH. Square brackets hold non-standard residues; d marks the D form. Peptide text beside a SMILES is read from it. X1 = CC(C)c1oc([C@H](CO)N[*:1])nc1C(=O)[*:2]; Pro(3R-Ph) = O=C(O)[C@H]1NCC[C@@H]1c1ccccc1; Tic = O=C(O)[C@@H]1Cc2ccccc2CN1; Cha = N[C@@H](CC1CCCCC1)C(=O)O

For data set [1], the target named is DR4Dw4 (DRA1*0101 DRB1*0401) (Homo sapiens, UniProt P01903+P01911, A100K/A169T/F76Y/I96L/K127E/L162R/M171V/N62H/P40V/Q125Y/R42H/S133A/S149N/S66Y/V115G/V209L/W38E). As to the kind of experiment: Competitive binding to MHC-II protein DR4Dw4. In a few lines:
(§1)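 Each MHC-II allele incubated with compound 16 hours at room temperature in duplicate; controls lacked compound, or both compound and MHC-II. Complexes captured 2 h at 4 °C, bound biotinylated peptide detected via europium-streptavidin and DELFIA enhancement, time-resolved fluorescence read at ex 340/em 613 (615) nm.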

Data set [2] deals with DR1 (DRA1*0101 DRB1*0101) (Homo sapiens, UniProt P01903+P01911, A100R/D57E/F55L/F60I/F76Y/I96L/L162R/M171V/P40L/Q125E/R42F/V115G/Y59C). As to the kind of experiment: Competitive binding to MHC-II protein DR1. Particulars: Protein binding IC50 (nM) 0101, 0101. Put shortly:
as §1

Data set [3] concerns the target DR4Dw14 (DRA1*0101 DRB1*0404) (Homo sapiens, UniProt P01903+P01911, A100R/A169T/F76Y/I96L/K127E/L162R/M171V/N62H/P40V/Q125Y/R42H/S133A/S149N/S66Y/V209L/W38E). As to the kind of experiment: Competitive binding to MHC-II protein DR4Dw14. Particulars: 0404; read-out: Protein binding IC50 (nM) 0404. In a few lines:
as §1

The target of data set [4] is T1, Priess (DR4Dw4: DRA1*0101 DRB1*0401) cells (Homo sapiens, UniProt P01903+P01911, A100K/A169T/F76Y/I96L/K127E/L162R/M171V/N62H/P40V/Q125Y/R42H/S133A/S149N/S66Y/V115G/V209L/W38E).
T1 construct: MHC II Proteins Expressed on PRIESS and LG2 Cells; endogenous in cells; host or cells: Priess cells
As to the kind of experiment: Competitive binding to MHC II proteins expressed on Priess cells. It counts as cell-based. How it is done: (§2) For use in the binding assay the cells were re-suspended in medium containing 1% FCS at a density of 2.5×10^6 cells/ml.
(§3) The assay was performed in sterile 96 well polystyrene microtiter plates. A 10 fold dilution series of compounds (16 nM-1615 μM) in 1% FCS was prepared from 5 or 10 mM compound stock solutions in 10% DMSO/water. 50 μl of each compound dilution were added in duplicates to 50 μl of a 16 μM solution of indicator peptide in 1% FCS. Cell binding was initiated by adding 100 μl of 2.5×10^6 cells/ml 1% FCS to each well. Controls were included containing the DMSO concentration present in the solution with the highest compound concentration. The cells were incubated at 37° C., 6% CO2. After 4 hours the cells were washed with 200 μl PBS and lysed in 200 μl lysis buffer (50 mM sodium phosphate, 150 mM sodium chloride, 1% (w/v) NP-40, 25 mM iodoacetamide, 1 mM PMSF, 3.1% protease inhibitor cocktail: 0.32 g/l of Chymostatin, Antipain, Pepstatin A, Soybean trypsin inhibitor and Leupeptin each, pH 7.5) for 10 min.
(§4) After washing with PBS, 190 μl of cell lysate were transferred to the appropriate wells of the capture plate and incubated for 2 h at 4° C. The wells were washed six times with 200 μl/well cooled (4 to 8° C.) of 1×DELFIA wash (Wallac-ADL-GmbH, Freiburg), incubated with 100 μl of cooled Europium-streptavidin conjugate (Wallac-ADL-GmbH, Freiburg; diluted 1/1000 with DELFIA assay buffer) for 30 minutes at 4° C., again washed six times with cooled 1×DELFIA wash and, finally, incubated with 200 μl cooled DELFIA enhancement solution (Wallac-ADL-GmbH, Freiburg) for one hour at room temperature before reading the time-resolved europium fluorescence at λex Eu^3+: 340 nm and λem Eu^3+: 613 (615) nm (Wallac Victor^2 1420 Multilabel Counter, Wallac-ADL-GmbH, Freiburg).

Data set [5] deals with T2, LG2 (DR1: DRA1*0101 DRB1*0101) cells (Homo sapiens, UniProt P01903+P01911, A100R/D57E/F55L/F60I/F76Y/I96L/L162R/M171V/P40L/Q125E/R42F/V115G/Y59C).
T2 construct: MHC II Proteins Expressed on PRIESS and LG2 Cells; endogenous in cells; host or cells: LG2 cells
As to the kind of experiment: Competitive binding to MHC II proteins expressed on LG2 cells. Type of data set: cell-based. Particulars: Cell binding IC50 (uM) LG2 (0101), LG2 (0101). How it is done: as §2, §3, §4

For data set [6], the system named is T-cell proliferation, lymph node cells of chimeric 0401-IE transgenic mice. Particulars: read-out: Immunsupressive assays DR4-LN (IC50); DR4-LN. How it is done: The compounds were tested as follows to inhibit the proliferative T cell response of antigen-primed lymph node cells from mice carrying a chimeric mouse-human class II transgene with an RA-associated peptide binding site, and lack murine class II molecules (Muller et al., 1990; Woods et al., 1994; Current Protocols in Immunology, Vol. 2, 7.21; Ito et al., 1996). Here, the immunization takes place in vivo, but the inhibition and readout are ex vivo. […] These mice lack murine MHC class II, and thus, all Th responses are channelled through a single human RA-associated MHC class II molecule (Ito et al. 1996). These transgenic mice represent a model for testing human class II antagonists.
1.5×10^5 cells are incubated in 0.2 ml wells of 96-well tissue culture plates in the presence of ovalbumin (30 μg per well—half-maximal stimulatory concentration) and a dilution series of the compound under test (from around 0.1 to 200 uM) in serum free HL-1 medium containing 2 mM L-glutamine and 0.1 g/l Kanamycin for three days. Antigen specific proliferation is measured by 3H-methyl-thymidine (1 μCi/well) incorporation during the last 16 h of culture (Falcioni et al., 1999). Cells are harvested, and 3H incorporation measured using a scintillation counter (TopCount, Wallac Finland).

Data set [7] concerns the target Cathepsin B1 (EC 3.4.22.1 from bovine spleen) (Bos taurus, UniProt P07688). Particulars: Cathepsin B, 4 h.
The next data set deals with Cathepsin L (Homo sapiens, UniProt P07711).
For data set [8], the system named is T-cell proliferation, DR14-LN. Particulars: read-out: Immunsupressive assays DR14-LN (IC50).
The test system of data set [9] is T cell activation from 0401(DR4) chimeric MHCII-mice. As to the kind of experiment: In vivo inhibition of T cell activation by co-immunisation, DR4 mice immunised with HEL. The arrangement: species or system mouse; % Reduction of response to PPD(HEL): concentration or dose not given beside the values. From the text: (§5) Mouse strains DR4 and DR14 carry chimeric MHC-II transgenes that encode the N-terminal domains of the respective DR molecules (forming the peptide binding site) and the remaining (2nd extracellular domains, transmembrane and intracytoplasmic domains) of the murine class II molecule I Ed. These strains are deficient of other murine class II, and thus, all helper T cell responses are triggered by peptides presented in the respective human MHC-II binding site. As an initial in vivo test of subject inhibitors designed to bind to DR, DR-transgenic mice were co-immunized with a pre-defined dose of protein antigen and different amounts of the compound antagonist to be tested. In this set-up, both antigen and compound were emulsified together in complete Freund's adjuvant (CFA), and thus, a direct competition between the two components for presentation by DR was tested. Readout of the assay is ex vivo antigen-specific activation of T cells from regional lymph nodes explanted 9 days after co-immunization. In a typical experiment, antigen dose-response was investigated, and the curves from mice immunized with antigen were compared to those from mice co-immunized with antigen+compound. The dose response curves were generated using lymph node cells pooled at equal numbers from 2-3 mice per experimental group. The experimental system also permits assessment of inherent antigenicity of the compound antagonist. This was done by setting up a dose-response study from the same cell pool using different concentrations of the compund under investigation instead of the antigen. As a specificity control, the response to Purified Protein Derivative (PPD), the major protein component of CFA, was tested in the same cell pool.
(§6) All Gpg conataining compounds have significant immunosupressive properties in one or both of the in-vivo models. Gpg-containing compounds also show improved activity or improved specificity over the Arg-containing equivilent. Further, compounds according to Formula I show activity in this assay.
(§7) Compounds of the invention were injected as an Emulsion prepared using CFA (Bacto Adjuvant Complete H37 Ra, Difco, Order-No. 3113-60); proteins 10 mg/ml in PBS, inhibitors 5 μM in 10% DMSO. CFA, PBS, antigen, and inhibitor were placed in the barrel of a 5-ml syringe (total volume not more than 1 mL). The mixture was sonicated at an amplitude less than 40% (30-35%) for two separated 15 s periods. The emulsion should seem to be hard and not liquid at this point. A drop of emulsion placed on the surface of water should not melt. The resulting emulsion was pushed through the needle into a 1 ml syringe with a needle (Gr.18, 26G×1″), and air bubbles were removed. Mice were co-immunized with 50 μg protein and 210 nM compound antagonist in final 100 μl emulsion into the tail base. Antigen+Compound and CFA are mixed 1:1 vol/vol. The best results are obtained using DR 4 mice immunised with HEL and DR 14 mice immunized with OVA.
(§8) Mice were injected at the tail-base as follows: Holding the tail of a mouse with thumb and middle finger, the index finger was placed under the base of the mouse's tail. The needle of the syringe was inserted about 1.5 cm from the tail base (hairy end) under the skin and pushed about 1 cm into the tail. 100 μl emulsion was injected into the mouse. After 9 days, mice were killed and lymph nodes removed.
(§9) The inhibitory effect of the candidate compounds on T-cell activation was tested using T-cells and antigen-presenting cells isolated from the lymph nodes of chimeric DR4-IE transgenic mice (Taconic, USA) previously co-immunized with hen egg lysozyme plus compound, or DR14-IE transgenic mice co-immunized with ovalbumin plus compound according to standard procedures (Adorini et al., 1988, Mueller et al., 1990; Current Protocols in Immunology, Vol. 2, 7.21; Ito et al., 1996). […]

Data set [10] relates to T cell activation from 0404(DR14) chimeric MHCII-mice. As to the kind of experiment: In vivo inhibition of T cell activation by co-immunisation, DR14 mice immunised with OVA. The arrangement: species or system mouse; % Reduction of response to PPD(OVA): concentration or dose not given beside the values.
Excerpt: as §5, §6, §7, §8, §9

For the compound `CSCC[C@H](NC(=O)[C@@H]1Cc2ccccc2CN1C(=O)[C@H](CCCNC(=N)N)NC(=O)[C@H](CC1CCCCC1)NC(C)=O)C(=O)N1CC[C@H](c2ccccc2)[C@H]1C(=O)N[C@@H](CO)c1nc(C(=O)N(C)C)c(C(C)C)o1` [Compound P33, Ac-Cha-Arg-Tic-Met-βPhPro-[S(oxaz)L]-NMe2] (Ac-[Cha]R[Tic]M[Pro(3R-Ph)][X1]-NMe2), the half-inhibitory concentration (IC50) (commonly the midpoint of a concentration-inhibition curve) was 0.3 µM in [1]; 190 nM in data set [2]; 220 nM in data set [3]; 3.2 µM in data set [4]; 4.6 µM in data set [5]; 40 µM in data set [6]. Besides, the IC50 in data set [8] was found to be 32 µM. In data set [7], the “Stability (Arbitrary units) Cath B 4 h” value is 97 Arbitrary units and 98 Arbitrary units. Also, on Cathepsin L, the “Stability (Arbitrary units) Cath L 4 h” value came to 107 Arbitrary units.
“Ac-Cha-Gpg-Disc-Nle-βPhPro-[S(oxaz)L]-NMe2 [Compound P61-1]”: the “% Reduction of response to HEL” value in data set [9] (DR4 mice co-immunised with HEL plus compound, mean % inhibition from the control over 3 concentrations of antigen (6.7, 20 and 60 ug)) is reported as 37.9%. In addition, in data set [9] (specificity control: response to PPD in the same cell pool, HEL co-immunised mice), the “% Reduction of response to PPD(HEL)” value was determined as 32.3%. In addition, the “% Reduction of response to OVA” value in data set [10] (DR14 mice co-immunised with OVA plus compound, mean % inhibition from the control over 3 concentrations of antigen (6.7, 20 and 60 ug)) came out at 3.7%. Besides, in data set [10] (specificity control: response to PPD in the same cell pool, OVA co-immunised mice), the “% Reduction of response to PPD(OVA)” value is 29.9%.
